Data reported in patent publication US8344008B2 (Janssen Pharmaceutica NV, priority 2007, dated 2013).

Target: T1, recombinant human LTA4 hydrolase (rhLTA4H) (Homo sapiens, UniProt P09960)
T1 construct: made in house; host or cells: Spodoptera frugiperda (Sf-9) cells, baculovirus (pFastBac1)
T1 sequence (P09960 1-611): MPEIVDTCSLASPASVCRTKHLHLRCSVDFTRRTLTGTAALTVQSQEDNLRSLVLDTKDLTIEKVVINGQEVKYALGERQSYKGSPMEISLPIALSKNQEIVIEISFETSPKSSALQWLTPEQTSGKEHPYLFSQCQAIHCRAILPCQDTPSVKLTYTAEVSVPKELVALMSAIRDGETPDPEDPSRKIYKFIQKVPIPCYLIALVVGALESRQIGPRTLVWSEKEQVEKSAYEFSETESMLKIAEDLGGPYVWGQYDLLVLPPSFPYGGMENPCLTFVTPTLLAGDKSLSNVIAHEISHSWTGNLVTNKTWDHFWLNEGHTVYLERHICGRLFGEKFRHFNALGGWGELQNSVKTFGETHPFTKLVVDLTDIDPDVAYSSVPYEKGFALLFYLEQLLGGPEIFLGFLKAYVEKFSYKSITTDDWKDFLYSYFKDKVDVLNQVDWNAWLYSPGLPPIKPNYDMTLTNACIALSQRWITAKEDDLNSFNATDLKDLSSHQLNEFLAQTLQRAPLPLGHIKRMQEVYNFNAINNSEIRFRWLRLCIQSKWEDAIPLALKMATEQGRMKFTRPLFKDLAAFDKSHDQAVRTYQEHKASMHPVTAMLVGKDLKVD
Test: Recombinant Human LTA4 Hydrolase Assay for LTA4 Hydrolase Inhibitor Activity
Type: biochemical
Details: average of results obtained; LTB4 quantified by enzyme-linked immunoassay
How it was run: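 Baculovirus/Sf-9-expressed human LTA4 hydrolase (36 ng) preincubated with compound 10 min at rt in 0.1 M potassium phosphate pH 7.4, 5 mg/mL fatty-acid-free BSA. Reaction started with 9 ng LTA4 free acid, run 10 min at rt; LTB4 measured by enzyme immunoassay, IC50 from 4-parameter fit.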

First: O=C(N1C[C@H]2C[C@@H]1CN2Cc1ccc(Oc2nc3ccccc3s2)cc1)C1(O)CC1 [Example 26, (R,R)-{5-[4-(Benzothiazol-2-yloxy)-benzyl]-2,5-diaza-bicyclo[2.2.1]hept-2-yl}-(1-hydroxy-cyclopropyl)-methanone]
Second: COCC(=O)N1C[C@@H]2C[C@H]1CN2Cc1ccc(Oc2nc3ccccc3s2)cc1 [Example 41, (S,S)-1-{5-[4-(Benzothiazol-2-yloxy)-benzyl]-2,5-diaza-bicyclo[2.2.1]hept-2-yl}-2-methoxy-ethanone]
The Ki of the first is 2.5-fold higher: 37 nM for the first, 15 nM for the second.

Going from `CS(=O)(=O)N1[C@@H]2CC[C@H]1C[C@@H](NCCOc1ccc(Oc3nc4cccc(Cl)c4s3)cc1)C2` [Example 248, meso-endo-{2-[4-(7-Chloro-benzothiazol-2-yloxy)-phenoxy]-ethyl}-(8-methanesulfonyl-8-aza-bicyclo[3.2.1]oct-3-yl)-amine] to `CS(=O)(=O)N1[C@@H]2CC[C@H]1C[C@H](NCCOc1ccc(Oc3nc4c(F)cccc4s3)cc1)C2` [Example 213, meso-exo-{2-[4-(4-Fluoro-benzothiazol-2-yloxy)-phenoxy]-ethyl}-(8-methanesulfonyl-8-aza-bicyclo[3.2.1]oct-3-yl)-amine], the Ki falls from 3130 nM to 20 nM (160-fold). The second binds more tightly here.

First: CC(=O)N1[C@@H]2CC[C@H]1C[C@@H](N(C)Cc1ccc(Oc3nc4ccccc4s3)cc1)C2 [Example 74, meso-endo-1-(3-{[4-(Benzothiazol-2-yloxy)-benzyl]-methyl-amino}-8-aza-bicyclo[3.2.1]oct-8-yl)-ethanone]
Second: CC(=O)N1C2CCC1CN(Cc1ccc(Oc3nc4ccccc4s3)cc1)C2 [Example 51, meso-1-{3-[4-(Benzothiazol-2-yloxy)-benzyl]-3,8-diaza-bicyclo[3.2.1]oct-8-yl}-ethanone]
The Ki of the first is 2.6-fold higher: 240 nM for the first, 92 nM for the second. The second binds more tightly here.

Compared with `CS(=O)(=O)N1C[C@H]2C[C@@H]1CN2Cc1ccc(Oc2nc3ccccc3s2)cc1` [Example 46, (R,R)-2-[4-(5-Methanesulfonyl-2,5-diaza-bicyclo[2.2.1]hept-2-ylmethyl)-phenoxy]-benzothiazole], `CS(=O)(=O)N1C[C@@H]2C[C@H]1CN2CCc1ccc(Oc2nc3ccccc3s2)cc1` [Example 47, (S,S)-2-{4-[2-(5-Methanesulfonyl-2,5-diaza-bicyclo[2.2.1]hept-2-yl)-ethyl]-phenoxy}-benzothiazole] is 1.8-fold higher in Ki: 32 nM for the first, 57 nM for the second.

Going from `CC(=O)N[C@@H]1C[C@H]2CC[C@@H](C1)N2Cc1ccc(Oc2nc3ccc(F)cc3s2)cc1` [Example 272, meso-exo-N-{8-[4-(6-Fluoro-benzothiazol-2-yloxy)-benzyl]-8-aza-bicyclo[3.2.1]oct-3-yl}-acetamide] to `CC(=O)N[C@H]1C[C@H]2CC[C@@H](C1)N2Cc1ccc(Oc2nc3ccccc3s2)cc1` [Example 52, meso-endo-N-{8-[4-(Benzothiazol-2-yloxy)-benzyl]-8-aza-bicyclo[3.2.1]oct-3-yl}-acetamide], the Ki falls from 6 nM to 2 nM (3-fold). The second binds more tightly here.

Compared with `CS(=O)(=O)N[C@H]1C[C@H]2CC[C@@H](C1)N2Cc1ccc(Oc2nc3cc(F)ccc3s2)cc1` [Example 208, meso-endo-N-{8-[4-(5-Fluoro-benzothiazol-2-yloxy)-benzyl]-8-aza-bicyclo[3.2.1]oct-3-yl}-methanesulfonamide], `NC(=O)N[C@@H]1C[C@H]2CC[C@@H](C1)N2CCc1ccc(Oc2nc3cc(F)ccc3s2)cc1` [Example 242, meso-exo-(8-{2-[4-(5-Fluoro-benzothiazol-2-yloxy)-phenyl]-ethyl}-8-aza-bicyclo[3.2.1]oct-3-yl)-urea] is 18-fold higher in Ki: 22 nM for the first, 398 nM for the second.

`CC(=O)N[C@H]1C[C@H]2CC[C@@H](C1)N2Cc1ccc(Oc2nc3c(C)cccc3s2)cc1` [Example 72, meso-endo-N-{8-[4-(4-Methyl-benzothiazol-2-yloxy)-benzyl]-8-aza-bicyclo[3.2.1]oct-3-yl}-acetamide] and `CC(=O)N[C@@H]1C[C@H]2CC[C@@H](C1)N2CCc1ccc(Oc2nc3cccc(F)c3s2)cc1` [Example 254, meso-exo-N-(8-{2-[4-(7-Fluoro-benzothiazol-2-yloxy)-phenyl]-ethyl}-8-aza-bicyclo[3.2.1]oct-3-yl)-acetamide] are within 1.5-fold of each other in Ki: 98 nM for the first, 115 nM for the second.

Compared with `CC(=O)N1CC2CN(Cc3ccc(Oc4nc5ccccc5s4)cc3)CC2C1` (stereo not shown) [Example 88, 1-{5-[4-(Benzothiazol-2-yloxy)-benzyl]-hexahydro-pyrrolo[3,4-c]pyrrol-2-yl}-ethanone], `O=C(c1ccno1)N1CC2CN(Cc3ccc(Oc4nc5ccccc5s4)cc3)CC2C1` (stereo not shown) [Example 114, {5-[4-(Benzothiazol-2-yloxy)-benzyl]-hexahydro-pyrrolo[3,4-c]pyrrol-2-yl}-isoxazol-5-yl-methanone] is 11-fold higher in Ki: 3 nM for the first, 33 nM for the second. The first binds more tightly here.

Compared with `O=C([C@@H]1CCCO1)N1CC2CN(Cc3ccc(Oc4nc5ccccc5s4)cc3)CC2C1` (stereo partly drawn) [Example 101, (S)-{5-[4-(Benzothiazol-2-yloxy)-benzyl]-hexahydro-pyrrolo[3,4-c]pyrrol-2-yl}-(tetrahydro-furan-2-yl)-methanone], `O=C(c1cnccn1)N1CC2CN(Cc3ccc(Oc4nc5ccccc5s4)cc3)CC2C1` (stereo not shown) [Example 105, {5-[4-(Benzothiazol-2-yloxy)-benzyl]-hexahydro-pyrrolo[3,4-c]pyrrol-2-yl}-pyrazin-2-yl-methanone] is 1.6-fold lower in Ki: 108 nM for the first, 69 nM for the second. The second binds more tightly here.

Compared with `CC(=O)N1CC2CCC(C1)N2CCOc1ccc(Oc2nc3cccc(Cl)c3s2)cc1` [Example 283, meso-1-(8-{2-[4-(7-Chloro-benzothiazol-2-yloxy)-phenoxy]-ethyl}-3,8-diaza-bicyclo[3.2.1]oct-3-yl)-ethanone], `CS(=O)(=O)N1CC2CCC(C1)N2CCOc1ccc(Oc2nc3cc(Cl)ccc3s2)cc1` [Example 256, meso-5-Chloro-2-{4-[2-(3-methanesulfonyl-3,8-diaza-bicyclo[3.2.1]oct-8-yl)-ethoxy]-phenoxy}-benzothiazole] is 5.1-fold higher in Ki: 338 nM for the first, 1710 nM for the second.

First: O=S(=O)(c1ccsc1)N1CC2CN(Cc3ccc(Oc4nc5ccccc5s4)cc3)CC2C1 (stereo not shown) [Example 125, 2-{4-[5-(Thiophene-3-sulfonyl)-hexahydro-pyrrolo[3,4-c]pyrrol-2-ylmethyl]-phenoxy}-benzothiazole]
Second: O=C(NCc1ccco1)N1CC2CN(Cc3ccc(Oc4nc5ccccc5s4)cc3)CC2C1 (stereo not shown) [Example 131, 5-[4-(Benzothiazol-2-yloxy)-benzyl]-hexahydro-pyrrolo[3,4-c]pyrrole-2-carboxylic acid (furan-2-ylmethyl)-amide]
The Ki of the first is 280-fold higher: 3620 nM for the first, 13 nM for the second. The second binds more tightly here.

Compared with `NC(=O)N1C[C@H]2C[C@@H]1CN2Cc1ccc(Oc2nc3cccc(Cl)c3s2)cc1` [Example 196, (R,R)-5-[4-(7-Chloro-benzothiazol-2-yloxy)-benzyl]-2,5-diaza-bicyclo[2.2.1]heptane-2-carboxylic acid amide], `O=C(c1cccs1)N1C[C@@H]2C[C@H]1CN2Cc1ccc(Oc2nc3ccccc3s2)cc1` [Example 61, (S,S)-{5-[4-(Benzothiazol-2-yloxy)-benzyl]-2,5-diaza-bicyclo[2.2.1]hept-2-yl}-thiophen-2-yl-methanone] is 29-fold lower in Ki: 793 nM for the first, 27 nM for the second. The second binds more tightly here.

Going from `O=C(CNC(=O)C(F)(F)F)N1CCC2CN(Cc3ccc(Oc4nc5ccccc5s4)cc3)CC21` (stereo not shown) [Example 98, N-(2-{5-[4-(Benzothiazol-2-yloxy)-benzyl]-hexahydro-pyrrolo[3,4-b]pyrrol-1-yl}-2-oxo-ethyl)-2,2,2-trifluoro-acetamide] to `CC(=O)N1C[C@@H]2C[C@H]1CN2Cc1cccc(Oc2nc3ccccc3s2)c1` [Example 2, (S,S)-1-{5-[3-(Benzothiazol-2-yloxy)-benzyl]-2,5-diaza-bicyclo[2.2.1]hept-2-yl}-ethanone], the Ki rises from 40 nM to 508 nM (13-fold).

First: CC(=O)N1[C@@H]2CC[C@H]1C[C@H](NCc1ccc(Oc3nc4ccc(C)cc4s3)cc1)C2 [Example 184, meso-exo-1-{3-[4-(6-Methyl-benzothiazol-2-yloxy)-benzylamino]-8-aza-bicyclo[3.2.1]oct-8-yl}-ethanone]
Second: CC(=O)N1[C@@H]2CC[C@H]1C[C@@H](NCCc1ccc(Oc3nc4ccc(Cl)cc4s3)cc1)C2 [Example 224, meso-endo-1-(3-{2-[4-(6-Chloro-benzothiazol-2-yloxy)-phenyl]-ethylamino}-8-aza-bicyclo[3.2.1]oct-8-yl)-ethanone]
The Ki of the first is 12-fold higher: 406 nM for the first, 33 nM for the second. The second binds more tightly here.

`CC(C)(C)OC(=O)NC1(C(=O)N2C[C@@H]3C[C@H]2CN3CCOc2ccc(Oc3nc4ccccc4s3)cc2)CC1` [Example 66, (S,S)-[1-(5-{2-[4-(Benzothiazol-2-yloxy)-phenoxy]-ethyl}-2,5-diaza-bicyclo[2.2.1]heptane-2-carbonyl)-cyclopropyl]-carbamic acid tert-butyl ester] and `CC(=O)N1C[C@@H]2C[C@H]1CN2CCOc1ccc(Oc2nc3cc(Cl)ccc3s2)cc1` [Example 264, (S,S)-1-(5-{2-[4-(5-Chloro-benzothiazole-2-yloxy)-phenoxy]-ethyl}-2,5-diaza-bicyclo[2.2.1]hept-2-yl)-ethanone] are within 1.5-fold of each other in Ki: 191 nM for the first, 212 nM for the second.

`NC(=O)N[C@@H]1C[C@H]2CC[C@@H](C1)N2CCOc1ccc(Oc2nc3c(F)cccc3s2)cc1` [Example 204, meso-exo-(8-{2-[4-(4-Fluoro-benzothiazol-2-yloxy)-phenoxy]-ethyl}-8-aza-bicyclo[3.2.1]oct-3-yl)-urea] was tested, and the Ki was 5 nM.
